The values below come from patent US10030027B2, “Soluble guanylate cyclase stimulators” (MERCK SHARP & DOHME CORP., priority 2015, dated 2018).

The target in assay [1] is human recombinant sGC enzyme (Homo sapiens (Human), UniProt Q02108+Q02153). Nature of the assay: Size Exclusion Chromatography (SEC) competition binding assay using [3H] Ex-77B as the radioligand. Conditions: [3H] Ex-77B radioligand, 24 hours at 37° C. On the procedure:
Binding Assay: The binding potencies of sGC compounds to the human recombinant sGC enzyme were determined in a Size Exclusion Chromatography (SEC) competition binding assay using [^3H] Ex-77B as the radioligand. [^3H] Ex-77B was prepared using a standardardized tritium exchange procedure. The parent (non-labeled) molecule was first iodinated then a Pd-catalyzed iodine to tritium exchange provided the labeled compound. […] Assays were conducted in 96-well plates in a total volume of 200 μL. […] Non-specific binding was defined by competition with 1 μM of Ex-77B. After the incubation period, the binding mixtures were loaded onto the gel-filtration plate (ThermoFischer Cat. No. 89808) pre-equilibrated with binding buffer and spun at 1000×g for 3 min at 4° C. on a Bench top centrifuge. The collected eluates in White Frame Clear Well Isoplates (Perkin Elmer Cat #6005040) received 100 μl of UltimaGold scintillation cocktail. The sealed plates were shaken vigorously and span, and counted after 6 hours with a Wallac Microbeta TriLux 1450 LSC & Luminescence Counter (Perkin Elmer). Data from competition experiments were analyzed to determine Ki values using one site fit Ki equation.

The target in another assay is sGC α1/β1 heterodimer (Homo sapiens (Human), UniProt Q02108+Q02153). The assay is described as follows: Cell-based sGC functional assay (cyclic GMP assay for sGC activator: CASA assay). Set-up: % Activation: concentration or dose not given beside the values. Conditions: CHO-K1/sGC cells; for Emax: CHO-K1, activity expressed as percentage of compound A (standard), read-out: % Activation; for EC50: inflection point, 4P fit, read-out: IP. The text has this: Cell-Based sGC Functional Assay (Cyclic GMP Assay for sGC Activator: CASA Assay)
Soluble guanylate cyclase (sGC) is a heme-containing enzyme that converts GTP to secondary messenger cGMP. Increases in cGMP levels affect several physiological processes including vasorelaxation through multiple downstream pathways. […] Heme-dependent activators (HDAs) preferentially activate sGC containing a ferrous heme group. To determine the effect of sGC activators on enzyme activity, the CASA assay was developed to monitor the generation of cGMP in a cell line that stably expresses the heterodimeric sGC protein.
A CHO-K1 cell line stably expressing the sGC α1/β1 heterodimer was generated using a standard transfection protocol. CHO-K1 cells were transfected with plasmids pIREShyghsGCα1 and pIRESneo-hsGCβ1 simultaneously using FUGENE reagent. Clones that stably express both subunits were selected with hygromycin and neomycin for ˜2 weeks. Clone #7 was chosen for the assay and was designated CHO-K1/sGC. CHO-K1/sGC cells were maintained in F-K12 medium containing 10% heat-inactivated Fetal Bovine Serum (FBS), 100 μg/mL penicillin/streptomycin, 0.5 mg/mL hygromycin and 0.25 mg/mL G418. The cells were then cryopreserved in LN2. On the day of the assay, the cells were thawed and resuspended in EBSS Assay Buffer (Sigma, E3024) supplemented with 5 mM MgCl2, 10 mM HEPES (4-(2-hydroxyethyl)piperazine-1-ethanesulfonic acid) and 0.05% BSA (bovine serum albumin) (EAB) and cell density was then adjusted to 2.25×10^5/mL with EAB. IBMX (3-isobutyl-1-methylxanthin, 0.5 mM) was added to inhibit degradation of cGMP. Compounds were diluted from DMSO stock solutions and added to the assay at a final DMSO concentration of 2.5%. Cells were pre-incubated in the presence and absence of 1 μM of Diethylenetriamine/nitric oxide adduct (DETA-NO; Sigma, 17018) for 30 min at 25° C. Compounds are subsequently added and incubated for 1 hr at 37° C. At the end of the incubation period, the reaction was terminated and the cells were lysed with the detection reagents from Cisbio Kits. The level of intracellular cGMP was determined using an HTRF-based assay kit (CisBio, 62GM2PEC), which detects the displacement of a fluorescence labeled cGMP from its specific antibody. The cGMP produced by test compounds was directly compared to the maximum cGMP production (this value was set to equal 100% activation.) of the published sGC-HDA compound A:
(Example 1 in WO 2010/065275, published Jun. 10, 2010). The test compounds' activity were then expressed as a percentage of compound A, the standard in every experiment. This percent activation was calculated either in the presence or absence of DETA-NO which was then plotted. Inflection points (IP) and maximum fold induction was derived using Abase analysis software for 4P fit.

SMILES strings stand for the structures.

Turning to `CC(C)(Cc1coc(C2(C)C(=O)Nc3nc(-c4nn(CC5CCCCO5)c5ccccc45)nc(N)c32)n1)C(=O)O` (single isomer, unassigned) [Example 230AB, 3-{2-[4-amino-5-methyl-6-oxo-2-{1-[tetrahydro-2H-pyran-2-ylmethyl]-1H-indazol-3-yl}-6,7-dihydro-5H-pyrrolo[2,3-d]pyrimidin-5-yl]-1,3-oxazol-4-yl}-2,2-dimethyl-propanoic acid], in assay [1], the Ki amounted to 0.28 nM.

With `CC1(c2cccc(-c3nn[nH]n3)c2)C(=O)Nc2nc(-c3nn(CCC(F)(F)C(F)(F)F)c4cc(Cl)ccc34)nc(N)c21` (single isomer, unassigned) [Example 251B, 4-amino-2-[6-chloro-1-(3,3,4,4,4-penta-fluorobutyl)-1H-indazol-3-yl]-5-methyl-5-[3-(1H-tetrazol-5-yl)phenyl]-5,7-dihydro-6H-pyrrolo[2,3-d] pyrimidin-6-one], the inhibition constant Ki in assay [1] was 0.182 nM.

`C[C@@]1(c2ccc(CCc3nn[nH]n3)cc2)C(=O)Nc2nc(-c3nn(Cc4ncccc4F)c4ccccc34)nc(N)c21` [Example 245B, (S)-5-{4-[2-(2H-tetrazol-5-yl)ethyl]phenyl}-4-amino-2-{1-[(3-fluoro-pyridin-2-yl)methyl]-1H-indazol-3-yl}-5-methyl-5,7-dihydro-6H-pyrrolo[2,3-d] pyrimidin-6-one]: the Ki in assay [1] was found to be 0.333 nM.

`CC1CCC(Cn2nc(-c3nc(N)c4c(n3)NC(=O)[C@@]4(C)c3nc(CC(C)(C)C(=O)O)cs3)c3cccnc32)CC1` (single isomer, unassigned) [Example 125AA]: in assay [1], the inhibitory constant (Ki) was found to be 0.783 nM.

`CC1(c2cc(C(=O)O)ccn2)C(=O)Nc2nc(-c3nn(Cc4ccccc4F)c4cc(Cl)ccc34)nc(N)c21` (stereo not shown) [Example 219A, 2-{4-amino-2-[6-chloro-1-(2-fluorobenzyl)-1H-indazol-3-yl]-5-methyl-6-oxo-6,7-dihydro-5H-pyrrolo[2,3-d]pyrimidin-5-yl} pyridine-4-carboxylic acid]: in assay [1], the Ki amounted to 0.183 nM.

In the case of `CC1(c2nc(CCCC(=O)O)cs2)C(=O)Nc2nc(-c3nn(Cc4ccccc4F)c4ccccc34)nc(N)c21` (stereo not shown) [Example 55A, 4-(2-{4-amino-2-[1-(2-fluorobenzyl)-1H-indazol-3-yl]-5-methyl-6-oxo-6,7-dihydro-5H-pyrrolo[2,3-d]pyrimidin-5-yl}thiazol-4-yl)butanoic acid], at sGC α1/β1 heterodimer, the Emax was 105% and the EC50 worked out at 432 nM.

Regarding `C[C@@H](NC(=O)CCc1ccc([C@]2(C)C(=O)Nc3nc(-c4nn(Cc5ccccc5F)c5ncccc45)nc(N)c32)cc1)C(=O)O` [Example 102B, (5S)-(3-(4-{4-amino-2-[1-(2-fluorobenzyl)-1H-pyrazolo[3,4-b]pyridin-3-yl]-5-methyl-6-oxo-6,7-dihydro-5H-pyrrolo[2,3-d]pyrimidin-5-yl}phenyl)propanoyl)-D-alanine], on sGC α1/β1 heterodimer, the Emax stood at 100% and the EC50 came to 573 nM.

Turning to `CC1CCC(Cn2nc(-c3nc(N)c4c(n3)NC(=O)C4(C)c3nc(CC(C)(C)C(=O)O)co3)c3ccc(F)cc32)CC1` (racemic) [Example 137AB, 3-{2-[4-amino-2-{6-fluoro-1-[4-methylcyclohexylmethyl]-1H-indazol-3-yl}-5-methyl-6-oxo-6,7-dihydro-5H-pyrrolo[2,3-d]pyrimidin-5-yl]-1,3-oxazol-4-yl}-2,2-dimethylpropanoic acid], the “% Activation” value on sGC α1/β1 heterodimer (activity expressed as percentage of compound A (standard)) is 98.4%.

For `CC1(c2cccc(CCC(=O)O)c2)C(=O)Nc2nc(-c3nn(Cc4ccccc4F)c4ccccc34)nc(N)c21` (stereo not shown) [Example 53A, 3-(3-{4-amino-2-[1-(2-fluorobenzyl)-1H-indazol-3-yl]-5-methyl-6-oxo-6,7-dihydro-5H-pyrrolo[2,3-d]pyrimidin-5-yl}phenyl)propanoic acid], on sGC α1/β1 heterodimer, the Emax worked out at 102% and the EC50 worked out at 124 nM.

Consider `CC[C@@H](NC(=O)CCc1ccc([C@]2(C)C(=O)Nc3nc(-c4nn(Cc5ccccc5F)c5ncccc45)nc(N)c32)cc1)C(=O)O` [Example 104B, (5S,2R)-2-(3-(4-{4-amino-2-[1-(2-fluorobenzyl)-1H-pyrazolo[3,4-b]pyridin-3-yl]-5-methyl-6-oxo-6,7-dihydro-5H-pyrrolo[2,3-d]pyrimidin-5-yl}phenyl)propanamido)butanoic acid], for which, at sGC α1/β1 heterodimer, the Emax came out at 106% and the EC50 amounted to 1370 nM.

With `CC1(c2cccc(CCC(=O)O)c2)C(=O)Nc2nc(-c3nn(Cc4ccccc4F)c4cc(Cl)ccc34)nc(N)c21` (stereo not shown) [Example 48A, 3-(3-{4-amino-2-(6-chloro-1-(2-fluorobenzyl)-1H-indazol-3-yl)-5-methyl-6-oxo-6,7-dihydro-5H-pyrrolo[2,3-d]pyrimidin-5-yl}phenyl)propanoic acid], on sGC α1/β1 heterodimer, the Emax came out at 102% and the EC50 is 257 nM.

On to `CC1(c2nn(C(C)(C)C(=O)O)c(=O)o2)C(=O)Nc2nc(-c3nn(CCC(F)(F)C(F)(F)F)c4cc(Cl)ccc34)nc(N)c21` (single isomer, unassigned) [Example 99B, 2-[5-{4-Amino-2-[6-chloro-1-(3,3,4,4,4-pentafluorobutyl)-1H-indazol-3-yl]-5-methyl-6-oxo-6,7-dihydro-5H-pyrrolo[2,3-d]pyrimidin-5-yl}-2-oxo-1,3,4-oxadiazol-3(2H)-yl]-2-methylpropanoic acid], for which the EC50 on sGC α1/β1 heterodimer is 186 nM.

Regarding `CC1(c2ccc(CC(=O)O)cc2)C(=O)Nc2nc(-c3nn(Cc4ccccc4F)c4cc(Cl)ccc34)nc(N)c21` (stereo not shown) [Example 117A, 2-(4-{4-amino-2-[6-chloro-1-(2-fluorobenzyl)-1H-indazol-3-yl]-5-methyl-6-oxo-6,7-dihydro-5H-pyrrolo[2,3-d]pyrimidin-5-yl}phenyl)acetic acid], on sGC α1/β1 heterodimer, the Emax was 69% and the EC50 worked out at 302 nM.

Consider `Cc1sc(C2(C)C(=O)Nc3nc(-c4nn(CCC(F)(F)C(F)(F)F)c5cc(Cl)ccc45)nc(N)c32)nc1-c1ccc(C(=O)O)cc1` (stereo not shown) [Example 94B, 4-(2-{4-amino-2-[6-chloro-1-(3,3,4,4,4-pentafluorobutyl)-1H-indazol-3-yl]-5-methyl-6-oxo-6,7-dihydro-5H-pyrrolo[2,3-d]pyrimidin-5-yl}-5-methyl-1,3-thiazol-4-yl)benzoic acid], for which, on sGC α1/β1 heterodimer, the Emax was 108% and the EC50 came out at 178 nM.

Consider `CC1(c2ccc(CCCC(=O)O)cc2)C(=O)Nc2nc(-c3nn(Cc4ccccc4F)c4cc(Cl)ccc34)nc(N)c21` (stereo not shown) [Example 115A, 4-(4-{4-amino-2-[6-chloro-1-(2-fluorobenzyl)-1H-indazol-3-yl]-5-methyl-6-oxo-6,7-dihydro-5H-pyrrolo[2,3-d]pyrimidin-5-yl}phenyl)butanoic acid], for which, on sGC α1/β1 heterodimer, the Emax amounted to 79% and the EC50 turned out to be 122 nM.

With `CC1(c2cccc(CCC(=O)O)c2)C(=O)Nc2nc(-c3nn(Cc4ccccc4F)c4ncc(F)cc34)nc(N)c21` (stereo not shown) [Example 24A, 3-(3-{4-amino-2-[5-fluoro-1-(2-fluorobenzyl)-1H-pyrazolo[3,4-b]pyridin-3-yl]-5-methyl-6-oxo-6,7-dihydro-5H-pyrrolo[2,3-d]pyrimidin-5-yl}phenyl)propanoic acid], on sGC α1/β1 heterodimer, the Emax is 106% and the EC50 came to 210 nM.

A word on the Ki: it is the equilibrium dissociation constant of an inhibitor or competing ligand from its target.
